These are literature values, as cited in publication PMC10017685 (Nature Communications, 2023).

The data set concerns human erythrocytes. Also on record: method as in DBAASP. The conditions noted are these: cited from earlier work.
Where [1] appears, read: toxicity class label 1 or 0, meaning of the labels not given, DBAASP HC50 data, human erythrocytes, ref DBAASP.

Like-named read-outs stand apart in the source and are kept apart here.

Consider FLQGIWDTVGKWL [DBAASP_18166], for which the “Class (dedicated toxicity dataset used for toxicity classifier evaluation)” value (shortened to “Class”) under setting [1] is recorded as 0. For GLLGLLGSVVSHVVPAIVGHF [DBAASP_2298], under setting [1], the “Class” value is listed as 1. Take IAKIAGKIAKIAGKIAKIAGKIA [DBAASP_14994]: under setting [1], the “Class” value is 1. With GLLKLIKTLL [DBAASP_3136], under setting [1], the “Class” value is listed as 1. On to GLLGKLLKIAAKVGSNLL [DBAASP_4922], for which, under setting [1], the “Class” value is reported as 1. For WKKWWKKWWKKW [DBAASP_10848], under setting [1], the “Class” value is listed as 0.

Take SILPTIVSFLSKVF [DBAASP_13348]: the “Class” value under setting [1] was 1. With KLLKRIKKLL [DBAASP_3152], the “Class” value under setting [1] was 0. As for GILSSLWKKLKKWIAK [DBAASP_8918], the “Class” value was 0. Take FLPIIAGAAAKVVEKIFCAISKKC [DBAASP_4217]: the “Class” value under setting [1] is given as 1. Regarding ILPIRSLIKKLL [DBAASP_5721], the “Class” value under setting [1] is 0. VRRFPWYYPFLRR [DBAASP_14263]: under setting [1], the “Class” value is on record as 0. On to TIAMRAINNYRWRSKNQNTFLR [DBAASP_6544], for which the “Class” value under setting [1] is 1. For GIWDTIKSMGKVFAGKIKQNL [DBAASP_702], the “Class” value under setting [1] is on record as 0. Consider FLQGIIDTVGKWL [DBAASP_18165], for which the “Class” value under setting [1] is reported as 0.

In the case of KLLKFIKTLL [DBAASP_3151], the “Class” value under setting [1] is on record as 0. For SKVGRHLRRFLHRAHRKL [DBAASP_7664], the “Class” value under setting [1] is 0.

For FLPMLAGLAANFLPKIVCKITKKC [DBAASP_1892], the “Class” value under setting [1] is listed as 1. Turning to RWGKWFKKATHVGKHVGKAALTAYL [DBAASP_997], the “Class” value under setting [1] is listed as 0. As for FLAGLIGGLAKML [DBAASP_1978], the “Class” value under setting [1] is given as 0. Take GLLKRIKFLL [DBAASP_3145]: the “Class” value under setting [1] is recorded as 0. Consider GLVGTLLGHIGKAILG [DBAASP_5369], for which, under setting [1], the “Class” value was 0. For GIMISLMKKLAAHIAK [DBAASP_8898], the “Class” value under setting [1] is on record as 0. For FLPLIASLAANFVPKIFCKITKKC [DBAASP_3563], the “Class” value under setting [1] is 0. Turning to FLPLIAGVAANFLPKIFCLISKKC [DBAASP_6168], under setting [1], the “Class” value was 1. Take GLLKRIKALL [DBAASP_3124]: the “Class” value under setting [1] is on record as 0.

FWSTIWNAAKSLI [DBAASP_18164]: the “Class” value under setting [1] was 1. On to CVKVRVKVGSGVKVRVKVC [DBAASP_349], for which the “Class” value under setting [1] is 0. Take SYERKINRHFKTLKKNLKKK [DBAASP_13931]: under setting [1], the “Class” value was 0.

Take IKWKKLLRAAKRIL [DBAASP_2253]: under setting [1], the “Class” value is 0.

Regarding FFGSVLKLIPKIL [DBAASP_5799], the “Class” value under setting [1] was 0. On to FFHHIFRGIVHIGKTIHRLVTG [DBAASP_9010], for which the “Class” value under setting [1] is recorded as 1. Turning to FLPLIAGVAASILPKIFCFITKKC [DBAASP_6170], the “Class” value under setting [1] is listed as 1. On to GVWSTILGGLKKFAKGGLDAIVNPK [DBAASP_5716], for which the “Class” value under setting [1] is listed as 0. In the case of GLLKKIKWLL [DBAASP_7430], the “Class” value is on record as 0. Turning to ILPWKWPWWPWRR [DBAASP_491], the “Class” value under setting [1] is reported as 0.
